Experimental data reported in the supplement of paper PMC7394473.

Columns and labels:
Details in all cases: 72 h
U2OS [1] = experiment: fractional viability (live cells / total cells); higher = less cell death
Experimental: (§1)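 U2OS::Nuc-mKate2 cells seeded in 96-well plates and treated with eight- to ten-point half-log or log dilutions of drug in the presence of 50 nM SYTOX Green. Live (mKate2+) and dead (SYTOX+) cells were counted by IncuCyte STACK live-cell microscopy at 72 h; biological triplicates. GR is the normalised growth-rate inhibition value (Hafner 2016; 1 = untreated growth, <0 = population shrinking). FV is live/(live+dead) cells, not normalised.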

U2OS [2] = experiment: normalized growth rate inhibition value (GR) relative to untreated cells (GR value (dimensionless, 1 = untreated growth)); higher = less growth inhibition
Experimental: as §1

U2OS [3] = experiment: GRmin (fitted minimal GR value at highest effect) (GR value (dimensionless)); higher = less efficacious
Experimental: (§2)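 U2OS cells treated with full dose titrations of drug; live and dead cells counted by STACK microscopy (mKate2 nuclei, SYTOX Green) at 72 h, biological triplicates. GR and FV dose responses were fitted with 4-parameter logistic models (GR lower bound -1). GRADE (0-100) is the rescaled angle of a linear fit of FV versus GR at doses with GR >= 0, giving the percentage of the response due to cell death.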

U2OS [4] = experiment: drug GRADE (percent of response due to cell death) (% (0-100)); higher = more death-driven response
Experimental: as §2

U2OS [5] = experiment: GR50 (concentration giving GR = 0.5)
Experimental: as §2

Row | SMILES | fractional viability (U2OS [1]; 0.01 µM) | fractional viability (U2OS [1]; 0.0316 µM) | fractional viability (U2OS [1]; 0.1 µM) | fractional viability (U2OS [1]; 0.316 µM) | fractional viability (U2OS [1]; 1 µM) | fractional viability (U2OS [1]; 3.16 µM) | fractional viability (U2OS [1]; 10 µM) | fractional viability (U2OS [1]; 31.6 µM) | normalized growth rate inhibition value (U2OS [2]; 0.01 µM) | normalized growth rate inhibition value (U2OS [2]; 0.0316 µM) | normalized growth rate inhibition value (U2OS [2]; 0.1 µM) | normalized growth rate inhibition value (U2OS [2]; 0.316 µM) | normalized growth rate inhibition value (U2OS [2]; 1 µM) | normalized growth rate inhibition value (U2OS [2]; 3.16 µM) | normalized growth rate inhibition value (U2OS [2]; 10 µM) | normalized growth rate inhibition value (U2OS [2]; 31.6 µM) | GRmin (U2OS [3]) | fractional viability (U2OS [1]; 0.00100578 µM) | fractional viability (U2OS [1]; 0.00317827 µM) | fractional viability (U2OS [1]; 0.0100433 µM) | fractional viability (U2OS [1]; 0.0317369 µM) | fractional viability (U2OS [1]; 0.100289 µM) | fractional viability (U2OS [1]; 0.316912 µM) | fractional viability (U2OS [1]; 1.00144 µM) | fractional viability (U2OS [1]; 3.16456 µM) | drug GRADE (U2OS [4]) | normalized growth rate inhibition value (U2OS [2]; 0.00100578 µM) | normalized growth rate inhibition value (U2OS [2]; 0.00317827 µM) | normalized growth rate inhibition value (U2OS [2]; 0.0100433 µM) | normalized growth rate inhibition value (U2OS [2]; 0.0317369 µM) | normalized growth rate inhibition value (U2OS [2]; 0.100289 µM) | normalized growth rate inhibition value (U2OS [2]; 0.316912 µM) | normalized growth rate inhibition value (U2OS [2]; 1.00144 µM) | normalized growth rate inhibition value (U2OS [2]; 3.16456 µM) | GR50 (U2OS [5]) [µM]
1 | O=C(O)CCCc1ccc(N(CCCl)CCCl)cc1 [Chlorambucil] | 0.983 | 0.974 | 0.978 | 0.978 | 0.979 | 0.976 | 0.976 | 0.967 | 1.08 | 0.879 | 1.13 | 0.991 | 0.93 | 0.936 | 0.925 | 0.838 | 0.695 | – | – | – | – | – | – | – | – | – | – | – | – | – | – | – | – | – | –
2 | N.N.[Cl][Pt][Cl] [Cisplatin] | – | – | – | – | – | – | 0.884 | – | – | – | – | – | – | – | 0.0495 | – | 0.0264 | 0.99 | 0.989 | 0.988 | 0.99 | 0.988 | 0.986 | 0.984 | 0.957 | 11.1 | 0.959 | 0.955 | 1.02 | 0.95 | 0.901 | 0.972 | 0.755 | 0.248 | 1.8
3 | CN(C)/N=N/c1[nH]cnc1C(N)=O [Dacarbazine] | 0.975 | 0.984 | 0.974 | 0.978 | 0.975 | 0.964 | 0.942 | 0.926 | 1.08 | 1.01 | 0.899 | 0.939 | 0.934 | 0.821 | 0.837 | 0.769 | 0.749 | – | – | – | – | – | – | – | – | – | – | – | – | – | – | – | – | – | –
4 | Cc1nc(Nc2ncc(C(=O)Nc3c(C)cccc3Cl)s2)cc(N2CCN(CCO)CC2)n1 [Dasatinib] | – | – | – | – | – | – | 0.635 | – | – | – | – | – | – | – | -0.105 | – | – | 0.99 | 0.988 | 0.979 | 0.974 | 0.976 | 0.97 | 0.963 | 0.913 | 26.7 | 0.806 | 0.867 | 0.998 | 0.833 | 0.762 | 0.799 | 0.605 | 0.35 | 1.68
5 | CCOc1ccccc1-n1c(C(C)N2CCN(C(=O)COc3ccc(Cl)cc3)CC2)nc2ccccc2c1=O (stereo not drawn) [Erastin] | 0.977 | 0.982 | 0.983 | 0.976 | 0.961 | 0.945 | 0.647 | 0.531 | 0.987 | 1 | 0.973 | 0.878 | 0.826 | 0.586 | 0.22 | -0.0643 | -0.351 | – | – | – | – | – | – | – | – | 44.7 | – | – | – | – | – | – | – | – | 4.14
6 | C#Cc1cccc(Nc2ncnc3cc(OCCOC)c(OCCOC)cc23)c1 [Erlotinib] | 0.973 | 0.976 | 0.977 | 0.967 | 0.96 | 0.96 | 0.913 | 0.697 | 0.935 | 0.993 | 1.03 | 0.986 | 1.06 | 0.928 | 0.636 | 0.545 | 0.542 | – | – | – | – | – | – | – | – | 62.1 | – | – | – | – | – | – | – | – | –
7 | COc1cc([C@@H]2c3cc4c(cc3[C@@H](O[C@@H]3O[C@@H]5CO[C@@H](C)O[C@H]5[C@H](O)[C@H]3O)[C@H]3COC(=O)[C@H]23)OCO4)cc(OC)c1O [Etoposide] | – | – | – | – | – | – | 0.628 | – | – | – | – | – | – | – | -0.155 | – | -0.106 | 0.99 | 0.988 | 0.993 | 0.989 | 0.975 | 0.952 | 0.96 | 0.922 | 8.6 | 0.934 | 1.02 | 0.895 | 0.785 | 0.524 | 0.11 | -0.0401 | -0.0127 | 0.0978
8 | CO[C@H]1C[C@@H]2CC[C@@H](C)[C@@](O)(O2)C(=O)C(=O)N2CCCC[C@H]2C(=O)O[C@H]([C@H](C)C[C@@H]2CC[C@@H](OCCO)[C@H](OC)C2)CC(=O)[C@H](C)/C=C(\C)[C@@H](O)[C@@H](OC)C(=O)[C@H](C)C[C@H](C)/C=C/C=C/C=C/1C [Everolimus] | – | – | – | – | – | – | 0.984 | – | – | – | – | – | – | – | 0.515 | – | -0.334 | 0.994 | 0.992 | 0.991 | 0.994 | 0.993 | 0.994 | 0.989 | 0.99 | 0.964 | 0.653 | 0.758 | 0.721 | 0.653 | 0.738 | 0.79 | 0.598 | 0.524 | –
